Results as given in patent US8399452B2, “Dibenzo[b,f][1,4]oxazepin-11-yl-N-hydroxybenzamides as HDAC inhibitors” (Methylgene Inc., priority 2006, dated 2013).

target: histone deacetylase (HDAC Enzyme); test: Inhibition of Histone Deacetylase Enzymatic Activity (Boc-Lys(Ac)-AMC, Fluor-de-Lys developer); assay type: biochemical; conditions: Table 9; read-out: HDAC Inhibition (IC50 μM) HDAC Enzyme
Protocol: The following protocol is used to assay the compounds of the invention.
The mixture is pre-incubated for 5 minutes at room temperature. The reaction is started by bringing the temperature to 37° C. and adding 16 μl substrate. Total reaction volume is 50 μl.
In the Tables 8, 9 and 10, A≦[…]<B≦0.1 μM; 0.1 μM<C≦1 μM; and 1 μM<D≦10 μM.

| Structure (SMILES) | IC50 |
| --- | --- |
| O=C(NO)c1cnc(N2C[C@@H]3C[C@H]2CN3C(=O)OCc2cccnc2)nc1 [(1S,4S)-pyridin-3-ylmethyl 5-(5-(hydroxycarbamoyl)pyrimidin-2-yl)-2,5-diazabicyclo[2.2.1]heptane-2-carboxylate] | < 0.05 µM |
| CC(C)COC(=O)N1C[C@@H]2C[C@H]1CN2c1ncc(C(=O)NO)cn1 [(1S,4S)-isobutyl 5-(5-(hydroxycarbamoyl)pyrimidin-2-yl)-2,5-diazabicyclo[2.2.1]heptane-2-carboxylate] | < 0.05 µM |
| O=C(NO)c1cnc(N2C[C@@H]3C[C@H]2CN3c2cc(C(F)(F)F)nc3ccccc23)nc1 [N-hydroxy-2-((1S,4S)-5-(2-(trifluoromethyl)quinolin-4-yl)-2,5-diazabicyclo[2.2.1]heptan-2-yl)pyrimidine-5-carboxamide] | < 0.05 µM |
| O=C(NO)c1cnc(N2C[C@@H]3C[C@H]2CN3C(=O)OCC2CC2)nc1 [(1S,4S)-cyclopropylmethyl 5-(5-(hydroxycarbamoyl)pyrimidin-2-yl)-2,5-diazabicyclo[2.2.1]heptane-2-carboxylate] | < 0.05 µM |
| Cc1cccc(N2CC3CC2CN3c2ccc(C(=O)NO)cc2)c1 (centres unmarked) [N-hydroxy-4-(5-m-tolyl-2,5-diazabicyclo[2.2.1]heptan-2-yl)benzamide] | 0.1 to 1 µM |
| N#Cc1cccc(N2C[C@@H]3C[C@H]2CN3c2ccc(C(=O)NO)cc2)c1 [4-((1S,4S)-5-(3-cyanophenyl)-2,5-diazabicyclo[2.2.1]heptan-2-yl)-N-hydroxybenzamide] | 0.1 to 1 µM |
| O=C(NO)c1cnc(N2C[C@@H]3C[C@H]2CN3c2cccc(C(F)(F)F)c2)s1 [N-hydroxy-2-((1S,4S)-5-(3-(trifluoromethyl)phenyl)-2,5-diazabicyclo[2.2.1]heptan-2-yl)thiazole-5-carboxamide] | < 0.05 µM |

same assay, conditions: Table 10; read-out: HDAC Inhibition (IC50 μM) HDAC Enzyme

| Structure (SMILES) | IC50 |
| --- | --- |
| O=C(NO)c1ccc(Cn2c(=O)c3ccccc3c3ccccc32)cc1 [N-hydroxy-4-((6-oxophenanthridin-5(6H)-yl)methyl)benzamide] | < 0.05 µM |
| O=C(CCCCCN1C(=O)c2ccccc2N(C2CC2)c2ccccc21)NO | 0.1 to 1 µM |
| O=C(NO)c1ccc(CN2c3ccccc3CCc3ccccc32)cc1 [4-((10,11-dihydro-5H-dibenzo[b,f]azepin-5-yl)methyl)-N-hydroxybenzamide] | < 0.05 µM |
| O=C(NO)c1cnc(N2C[C@@H]3C[C@]3(c3ccc(Cl)c(Cl)c3)C2)nc1 | 0.1 to 1 µM |
| O=C(CCCCCCCN1C(=O)CN=C(c2ccccc2)c2ccccc21)NO [(Z)-N-hydroxy-8-(2-oxo-5-phenyl-2,3-dihydro-1H-benzo[e][1,4]diazepin-1-yl)octanamide] | 0.1 to 1 µM |
| O=C(CCCCCC(=O)N1c2ccccc2C=Cc2ccccc21)NO [(Z)-7-(5H-dibenzo[b,f]azepin-5-yl)-N-hydroxy-7-oxoheptanamide] | < 0.05 µM |
| O=C(NO)c1ccc(CN2C(=O)c3ccccc3CCc3ccccc32)cc1 [N-hydroxy-4-((6-oxo-11,12-dihydrodibenzo[b,f]azocin-5(6H)-yl)methyl)benzamide] | 0.1 to 1 µM |
| O=C(NO)c1cccc(CN(c2ccccc2)c2ccccc2)c1 [3-((diphenylamino)methyl)-N-hydroxybenzamide] | 1 to 10 µM |
| O=C(/C=C/c1ccc(CN2c3ccccc3C=Cc3ccccc32)cc1)NO [(E)-3-(4-(((Z)-5H-dibenzo[b,f]azepin-5-yl)methyl)phenyl)-N-hydroxyacrylamide] | 0.05 to 0.1 µM |
| O=C(NO)c1cnc(NC(c2ccc(F)cc2)c2ccc(F)cc2)nc1 [2-(bis(4-fluorophenyl)methylamino)-N-hydroxypyrimidine-5-carboxamide] | < 0.05 µM |
| O=C(NO)c1ccc(CN2c3ccccc3C=Cc3ccccc32)cc1 [(Z)-4-((5H-dibenzo[b,f]azepin-5-yl)methyl)-N-hydroxybenzamide] | < 0.05 µM |
| O=C(CCCCCCC(=O)NC1c2ccccc2C=Cc2ccccc21)NO | 0.1 to 1 µM |
| CN(c1ncc(C(=O)NO)cn1)C1c2ccccc2CCc2ccccc21 | < 0.05 µM |
| O=C(NO)c1cnc(NC2c3ccccc3C=Cc3ccccc32)nc1 | < 0.05 µM |
| O=C(NO)c1ccc(CNC(c2ccccc2)c2ccccc2)cc1 [4-((benzhydrylamino)methyl)-N-hydroxybenzamide] | < 0.05 µM |
| O=C(NO)c1cnc(N2CCCN(C(=O)OCc3ccccc3)CC2)nc1 [benzyl 4-(5-(hydroxycarbamoyl)pyrimidin-2-yl)-1,4-diazepane-1-carboxylate] | 0.05 to 0.1 µM |
| O=C(CCCCCCC(=O)N1c2ccccc2C=Cc2ccccc21)NO [(Z)-8-(5H-dibenzo[b,f]azepin-5-yl)-N-hydroxy-8-oxooctanamide] | 0.1 to 1 µM |
| O=C(CCCCON=C1c2ccccc2CCc2ccccc21)NO | 0.1 to 1 µM |
| O=C(NO)c1cnc(N2C[C@H]3C[C@@]3(c3ccc(Cl)c(Cl)c3)C2)nc1 [2-((1R,5S)-1-(3,4-dichlorophenyl)-3-azabicyclo[3.1.0]hexan-3-yl)-N-hydroxypyrimidine-5-carboxamide] | 0.1 to 1 µM |
| O=C(NO)c1cnc(N2CCn3c(nnc3C(F)(F)F)C2)nc1 [N-hydroxy-2-(3-(trifluoromethyl)-5,6-dihydro-[1,2,4]triazolo[4,3-a]pyrazin-7(8H)-yl)pyrimidine-5-carboxamide] | 0.05 to 0.1 µM |
| O=C(CCCCCCCN1C(=O)c2ccccc2Oc2ccccc21)NO [N-hydroxy-8-(11-oxodibenzo[b,f][1,4]oxazepin-10(11H)-yl)octanamide] | 0.05 to 0.1 µM |
| O=C(CCCCCCN1C(=O)c2ccccc2Oc2ccccc21)NO [N-hydroxy-7-(11-oxodibenzo[b,f][1,4]oxazepin-10(11H)-yl)heptanamide] | < 0.05 µM |
| O=C(NO)c1ccc(Cn2c(-c3ccccc3)cc3ccccc32)cc1 [N-hydroxy-4-((2-phenyl-1H-indol-1-yl)methyl)benzamide] | 0.1 to 1 µM |
| O=C(NO)c1cnc(N2CCCN(c3ncc(C(F)(F)F)cc3Cl)CC2)nc1 | < 0.05 µM |
| O=C(NO)c1cnc(NC2c3ccccc3-c3ccccc32)nc1 [2-(9H-fluoren-9-ylamino)-N-hydroxypyrimidine-5-carboxamide] | 0.1 to 1 µM |
| O=C(NO)c1cn2c(n1)sc1ccccc12 | 0.1 to 1 µM |

same assay, conditions: read-out: HDAC Inhibtion (IC50 μM) HDAC Enzyme

| Structure (SMILES) | IC50 |
| --- | --- |
| O=C(NO)c1ccc(C2=Nc3c(F)cccc3Oc3ccccc32)cc1 [(Z)-4-(9-fluorodibenzo[b,f][1,4]oxazepin-11-yl)-N-hydroxybenzamide] | 0.05 to 0.1 µM |
| CCN1c2ccccc2N=C(c2ccc(C(=O)NO)cc2)c2cccnc21 [(Z)-4-(11-ethyl-11H-benzo[b]pyrido[2,3-e][1,4]diazepin-5-yl)-N-hydroxybenzamide] | < 0.05 µM |
| O=C(NO)c1ccc(C2=Nc3cncnc3N3CCc4cccc2c43)cc1 | 0.1 to 1 µM |
| O=C(NO)c1ccc(C2=Nc3ccccc3Oc3ncccc32)cc1 [(Z)-4-(benzo[b]pyrido[3,2-f][1,4]oxazepin-5-yl)-N-hydroxybenzamide] | 0.05 to 0.1 µM |
| O=C(NO)c1ccc(C2=Nc3ccccc3Oc3ccccc32)cc1 [(Z)-4-(dibenzo[b,f][1,4]oxazepin-11-yl)-N-hydroxybenzamide] | < 0.05 µM |
| O=C(NO)c1ccc(-c2ccc3c(c2)C(N2CCOCC2)=Nc2ccccc2O3)cc1 [(E)-N-hydroxy-4-(11-morpholinodibenzo[b,f][1,4]oxazepin-2-yl)benzamide] | < 0.05 µM |
| CC(C)N1c2ccccc2N=C(c2ccc(C(=O)NO)cc2)c2cccnc21 [(Z)-N-hydroxy-4-(11-isopropyl-11H-benzo[b]pyrido[2,3-e][1,4]diazepin-5-yl)benzamide] | < 0.05 µM |
| O=C(NO)c1ccc(C2=Nc3ccccc3Sc3ccccc32)cc1 [(Z)-4-(dibenzo[b,f][1,4]thiazepin-11-yl)-N-hydroxybenzamide] | 0.1 to 1 µM |
